The results in this text go back to US20040086901A1, “Database for analyzing gene function and method of analyzing gene function by dspa” (priority 2000, published 2004).

Non-standard residues stand in square brackets, D forms with d. Residues, ends and D or L forms follow the SMILES beside them. Nle = CCCC[C@H](N)C(=O)O

Format in all cases: cell-based, mouse
In test [1] the test system is NIH3T3 cells overexpressing p53(wt). In words: MTT cell viability, p53(wt) overexpressing cells vs parental line. The settings on record: p53(wt) high-expressing cells / parental cell line, 3 to 4 days. Here is the method:
(§1) With regard to the function-known genes, the genes shown in the left column of Table 2 were used. With regard to the drugs, those shown in Table 1 were dissolved in DMSO to an extent of 100-fold of the maximum concentration for the search of the drugs and used. With regard to the cells, incubated NIH3T3 or ras-NIH3T3 cells were used.
(§2) Full-length cDNA of each function-known genes was incorporated into an expression vector (pRc-CMV, etc.) and transfected into NIH3T3 cells by a common method. Transformed cells were isolated using the resistance to G-418 as an index and the expression of the transfected gene in each cell was investigated by Western blotting method to select a highly expressing line.
(§3) Cell viabilities were measured according to the following procedures.
(§4) 1) From the 2nd to the 11th rows of a 96-well plate were filled with DMEM (50 μl). The 12th row was filled with 100 μl of DMEM.
(§5) 2) The 1st row was filled with 98 μl of DMEM.
(§6) 3) Drugs (2 μl each) were added into the 1st row.
(§7) 4) Continuous double-dilution was conducted from the 1st to the 9th rows. Fifty μl were taken out from the 9th row and discarded. The plate was preserved in a CO2 incubator.
(§8) 5) Cells (each high-expressing cells and the parental cell line) were detached from the medium using a trypsin solution, suspended in 10% CS-DMEM and transferred to a test tube and cell numbers (cell/ml) were counted.
(§9) 6) The cells were diluted to a concentration of 1×10^5 cells/ml, and 50 μl of the cell suspension were added to the 1st to the 11th rows of the plate followed by gently stirring.
(§10) 7) The plate was transferred to the CO2 incubator and incubated for 3 to 4 days.
(§11) 8) MTT (5 mg/ml in PBS) (10 μl) was added to the 1st to the 12th rows of the plate and incubated in the CO2 incubator at 37° C. for 4 hours.
(§12) 9) A reaction stop solution (0.04N HCl in isopropanol) (150 μl) was added followed by mixing well and being allowed to stand at room temperature for about 2 hours.
(§13) 10) Coloration of formazan which was a metabolite of the MTT dye was measured using a microplate reader. The measurement wavelength was 574 nm and the reference wavelength was 655 nm. The 10th and the 11th rows of the plate were 100% controls and the 12th row was a 0% control.
(§14) As an index for the sensitivity of highly gene-expressing cells and the parental cell line to various drugs, each of the IC40 values thereof was specified and ratios of the IC40 values were calculated. […] After that, logarithmic values of ratios of IC40 values were calculated from each gene.

The subject of test [2] is NIH3T3 cells overexpressing Cip-1. The test is described as follows: MTT cell viability, Cip-1 overexpressing cells vs parental line. The settings on record: Cip-1 high-expressing cells / parental cell line, 3 to 4 days. The protocol: as §1, §2, §3, §4, §5, §6, §7, §8, §9, §10, §11, §12, §13, §14
Test [3] concerns NIH3T3 cells overexpressing RhoA-DN. In words: MTT cell viability, RhoA-DN overexpressing cells vs parental line. Conditions: RhoA-DN high-expressing cells / parental cell line, 3 to 4 days. The protocol:
as §1, §2, §3, §4, §5, §6, §7, §8, §9, §10, §11, §12, §13, §14

Test [4] concerns NIH3T3 cells overexpressing Gluco-corticoid-R. The test is described as follows: MTT cell viability, Gluco-corticoid-R overexpressing cells vs parental line. Conditions: Gluco-corticoid-R high-expressing cells / parental cell line, 3 to 4 days. Here is the method: as §1, §2, §3, §4, §5, §6, §7, §8, §9, §10, §11, §12, §13, §14
Test [5] has as its system NIH3T3 cells overexpressing ERK-DN. The test is described as follows: MTT cell viability, ERK-DN overexpressing cells vs parental line. The settings on record: ERK-DN high-expressing cells / parental cell line, 3 to 4 days. Here is the method:
as §1, §2, §3, §4, §5, §6, §7, §8, §9, §10, §11, §12, §13, §14

Test [6] relates to NIH3T3 cells overexpressing HSP9O. In words: MTT cell viability, HSP9O overexpressing cells vs parental line. The settings on record: HSP9O high-expressing cells / parental cell line, 3 to 4 days. The protocol:
as §1, §2, §3, §4, §5, §6, §7, §8, §9, §10, §11, §12, §13
(§15) As an index for the sensitivity of highly gene-expressing cells and the parental cell line to various drugs, each of the IC40 values thereof was specified and ratios of the IC40 values were calculated. FIG. 2 and FIG. 3 are the examples where ratios of IC40 values were calculated from a curve showing the dependency on the concentration of the chemical versus the viability. After that, logarithmic values of ratios of IC40 values were calculated from each gene.

Test [7] relates to NIH3T3 cells overexpressing CaMKIIa-Active. The test is described as follows: MTT cell viability, CaMKIIa-Active overexpressing cells vs parental line. The settings on record: CaMKIIa-Active high-expressing cells / parental cell line, 3 to 4 days. Here is the method: as §1, §2, §3, §4, §5, §6, §7, §8, §9, §10, §11, §12, §13, §15

`CNc1ccc2oc(C[C@H]3O[C@@]4(CC[C@H]3C)O[C@H]([C@H](C)C(=O)c3ccc[nH]3)[C@H](C)C[C@H]4C)nc2c1C(=O)O` [A23187]: the “logarithmic value of ratio of IC40 values” in test [1] stood at 0.30; in test [2], 0.04; in test [3], 0.03; in test [4], 0.28; in test [5], 0.00; in test [6], 0.28. Moreover, the “logarithmic value of ratio of IC40 values” in test [7] was found to be 0.18.

Take `CCCC[C@@H](C=O)NC(=O)[C@H](CC(C)C)NC(=O)[C@H](CC(C)C)NC(C)=O` [ALLN] (Ac-Leu-Leu-[Nle]-aldehyde): the “logarithmic value of ratio of IC40 values” in test [1] is 0.18; in test [2], 0.18; in test [3] it was 0.00; in test [4], 0.12; in test [5], 0.00; in test [6], 0.16. Besides, the “logarithmic value of ratio of IC40 values” in test [7] came out at 0.20.

Take `CC(=O)OCOC(=O)CN(CC(=O)OCOC(C)=O)c1ccccc1OCCOc1ccccc1N(CC(=O)OCOC(C)=O)CC(=O)OCOC(C)=O` [BAPTA-AM]: the “logarithmic value of ratio of IC40 values” is reported as 0.00 in test [1]; 0.00 in test [2]; 0.09 in test [3]; 0.10 in test [4]; 0.12 in test [5]; 0.60 in test [6]. For the same compound, the “logarithmic value of ratio of IC40 values” in test [7] is 0.18.

Regarding `C[C@@H]1C[C@@H]([C@H](O)CC2CC(=O)NC(=O)C2)C(=O)[C@@H](C)C1` [CHX, cycloheximide], the “logarithmic value of ratio of IC40 values” in test [1] is listed as 0.85; in test [2], 1.77; in test [3] it was 0.22; in test [5], 0.08; in test [6], 0.07; in test [7] it was −0.09.

In the case of `CN(C)CCCn1cc(C2=C(c3c[nH]c4ccccc34)C(=O)NC2=O)c2ccccc21` [GF109203X], the “logarithmic value of ratio of IC40 values” in test [1] is recorded as 0.62; in test [2] it was 0.30; in test [4], 0.27; in test [5], 0.48.

For the compound `CO[C@H]1[C@@H](OC)C[C@H](C)[C@@H](OC)C2=CC(=O)C=C(NC(=O)/C(C)=C/C=C\[C@H](OC)[C@@H](OC(N)=O)/C(C)=C/[C@@H]1C)C2=O` [HMA, herbimycin A], the “logarithmic value of ratio of IC40 values” in test [1] is given as −0.22; in test [2], −0.30; in test [3], −0.10; in test [4], −0.11; in test [5], 0.00; in test [6], 0.40. Further, in test [7], the “logarithmic value of ratio of IC40 values” is 0.51.

Consider `CCCC[C@@H](C)/C=C(C)/C=C(\C)C(=O)NC1=C[C@@](O)(/C=C/C=C/C=C/C(=O)NC2=C(O)CCC2=O)[C@@H]2O[C@@H]2C1=O` [Manumycin, manumycin], for which the “logarithmic value of ratio of IC40 values” is reported as 0.12 in test [1]; 0.12 in test [2]; −0.13 in test [3]; 0.09 in test [4]; −0.05 in test [5]; −0.13 in test [6]. In addition, in test [7], the “logarithmic value of ratio of IC40 values” was determined as 0.03.

Regarding `O=[As]O` [NaAsO2, sodium arsenite], the “logarithmic value of ratio of IC40 values” in test [1] is reported as 0.20; in test [2] it was 0.30; in test [3], 0.00; in test [4], 0.16; in test [5] it was 0.16; in test [6], 0.10. The “logarithmic value of ratio of IC40 values” in test [7] is recorded as 0.02.

As for `C=C1[C@@H](O)[C@@H]2O[C@]3(CC[C@H](/C=C/[C@@H](C)[C@@H]4CC(C)=C[C@@]5(O[C@H](C[C@@](C)(O)C(=O)O)CC[C@H]5O)O4)O3)CC[C@H]2O[C@@H]1[C@@H](O)C[C@H](C)[C@H]1O[C@@]2(CCCCO2)CC[C@H]1C` [OA, okadaic acid], the “logarithmic value of ratio of IC40 values” in test [1] was −0.05; in test [2], −0.15; in test [3] it was 0.00; in test [4] it was 0.06; in test [5], 0.00; in test [6], 0.07. Also, the “logarithmic value of ratio of IC40 values” in test [7] is reported as 0.14.

Regarding `C=CC1=C(C)c2cc3[n-]c(cc4nc(cc5[n-]c(cc1n2)c(C)c5CCC(=O)O)C(CCC(=O)O)=C4C)c(C)c3C=C.[Cl-].[Cl-].[Sn+4]` [SnPP], the “logarithmic value of ratio of IC40 values” was −0.18 in test [1]; −0.66 in test [2]; 0.08 in test [3]; 0.00 in test [4]; 0.00 in test [5]; 0.30 in test [7].

Turning to `C/C=C(/C)C(=O)O[C@H]1C(C)=C2[C@H]([C@@H]1OC(=O)CCCCCCC)[C@@](C)(OC(C)=O)C[C@H](OC(=O)CCC)[C@@]1(O)[C@H]2OC(=O)[C@@]1(C)O` [Thapsigargin, thapsigargin], the “logarithmic value of ratio of IC40 values” is −0.05 in test [1]; 0.04 in test [2]; 0.06 in test [3]; 0.20 in test [4]; −0.15 in test [5]; 0.09 in test [6]. For the same compound, in test [7], the “logarithmic value of ratio of IC40 values” worked out at 0.03.

In the case of `COc1ccc2c(c1)CC[C@@H]1[C@@H]2CC[C@]2(C)[C@@H](NCCCCCCN3C(=O)C=CC3=O)CC[C@@H]12` [U73122], the “logarithmic value of ratio of IC40 values” in test [1] was 0.11; in test [2], 0.08; in test [3] it was −0.35; in test [4], 0.05; in test [5], 0.00; in test [6], 0.18. In addition, the “logarithmic value of ratio of IC40 values” in test [7] was found to be 0.00.

For `C=C[C@]1(C)CC[C@@H](C(=C)C)C[C@H]1C(=C)C` [b-elemene, β-elemene], the “logarithmic value of ratio of IC40 values” is 0.00 in test [1]; 0.00 in test [2]; 0.00 in test [4]; 0.33 in test [5]; 0.05 in test [6].

Regarding ICE inhibitor-III [ICEin-3], the “logarithmic value of ratio of IC40 values” in test [1] turned out to be 0.23; in test [2] it was 0.08; in test [3], 0.00; in test [4] it was 0.00; in test [5], 0.00; in test [6] it was 0.22. In test [7], the “logarithmic value of ratio of IC40 values” was found to be 0.22.
